target: Phospholipid-transporting ATPase ABCA1 (Mus musculus, UniProt P41233); experiment: Induction of ABCA1-mediated [3H]cholesterol efflux in mouse RAW 264.7 macrophages after 24 hrs
Sequence (P41233 whole entry): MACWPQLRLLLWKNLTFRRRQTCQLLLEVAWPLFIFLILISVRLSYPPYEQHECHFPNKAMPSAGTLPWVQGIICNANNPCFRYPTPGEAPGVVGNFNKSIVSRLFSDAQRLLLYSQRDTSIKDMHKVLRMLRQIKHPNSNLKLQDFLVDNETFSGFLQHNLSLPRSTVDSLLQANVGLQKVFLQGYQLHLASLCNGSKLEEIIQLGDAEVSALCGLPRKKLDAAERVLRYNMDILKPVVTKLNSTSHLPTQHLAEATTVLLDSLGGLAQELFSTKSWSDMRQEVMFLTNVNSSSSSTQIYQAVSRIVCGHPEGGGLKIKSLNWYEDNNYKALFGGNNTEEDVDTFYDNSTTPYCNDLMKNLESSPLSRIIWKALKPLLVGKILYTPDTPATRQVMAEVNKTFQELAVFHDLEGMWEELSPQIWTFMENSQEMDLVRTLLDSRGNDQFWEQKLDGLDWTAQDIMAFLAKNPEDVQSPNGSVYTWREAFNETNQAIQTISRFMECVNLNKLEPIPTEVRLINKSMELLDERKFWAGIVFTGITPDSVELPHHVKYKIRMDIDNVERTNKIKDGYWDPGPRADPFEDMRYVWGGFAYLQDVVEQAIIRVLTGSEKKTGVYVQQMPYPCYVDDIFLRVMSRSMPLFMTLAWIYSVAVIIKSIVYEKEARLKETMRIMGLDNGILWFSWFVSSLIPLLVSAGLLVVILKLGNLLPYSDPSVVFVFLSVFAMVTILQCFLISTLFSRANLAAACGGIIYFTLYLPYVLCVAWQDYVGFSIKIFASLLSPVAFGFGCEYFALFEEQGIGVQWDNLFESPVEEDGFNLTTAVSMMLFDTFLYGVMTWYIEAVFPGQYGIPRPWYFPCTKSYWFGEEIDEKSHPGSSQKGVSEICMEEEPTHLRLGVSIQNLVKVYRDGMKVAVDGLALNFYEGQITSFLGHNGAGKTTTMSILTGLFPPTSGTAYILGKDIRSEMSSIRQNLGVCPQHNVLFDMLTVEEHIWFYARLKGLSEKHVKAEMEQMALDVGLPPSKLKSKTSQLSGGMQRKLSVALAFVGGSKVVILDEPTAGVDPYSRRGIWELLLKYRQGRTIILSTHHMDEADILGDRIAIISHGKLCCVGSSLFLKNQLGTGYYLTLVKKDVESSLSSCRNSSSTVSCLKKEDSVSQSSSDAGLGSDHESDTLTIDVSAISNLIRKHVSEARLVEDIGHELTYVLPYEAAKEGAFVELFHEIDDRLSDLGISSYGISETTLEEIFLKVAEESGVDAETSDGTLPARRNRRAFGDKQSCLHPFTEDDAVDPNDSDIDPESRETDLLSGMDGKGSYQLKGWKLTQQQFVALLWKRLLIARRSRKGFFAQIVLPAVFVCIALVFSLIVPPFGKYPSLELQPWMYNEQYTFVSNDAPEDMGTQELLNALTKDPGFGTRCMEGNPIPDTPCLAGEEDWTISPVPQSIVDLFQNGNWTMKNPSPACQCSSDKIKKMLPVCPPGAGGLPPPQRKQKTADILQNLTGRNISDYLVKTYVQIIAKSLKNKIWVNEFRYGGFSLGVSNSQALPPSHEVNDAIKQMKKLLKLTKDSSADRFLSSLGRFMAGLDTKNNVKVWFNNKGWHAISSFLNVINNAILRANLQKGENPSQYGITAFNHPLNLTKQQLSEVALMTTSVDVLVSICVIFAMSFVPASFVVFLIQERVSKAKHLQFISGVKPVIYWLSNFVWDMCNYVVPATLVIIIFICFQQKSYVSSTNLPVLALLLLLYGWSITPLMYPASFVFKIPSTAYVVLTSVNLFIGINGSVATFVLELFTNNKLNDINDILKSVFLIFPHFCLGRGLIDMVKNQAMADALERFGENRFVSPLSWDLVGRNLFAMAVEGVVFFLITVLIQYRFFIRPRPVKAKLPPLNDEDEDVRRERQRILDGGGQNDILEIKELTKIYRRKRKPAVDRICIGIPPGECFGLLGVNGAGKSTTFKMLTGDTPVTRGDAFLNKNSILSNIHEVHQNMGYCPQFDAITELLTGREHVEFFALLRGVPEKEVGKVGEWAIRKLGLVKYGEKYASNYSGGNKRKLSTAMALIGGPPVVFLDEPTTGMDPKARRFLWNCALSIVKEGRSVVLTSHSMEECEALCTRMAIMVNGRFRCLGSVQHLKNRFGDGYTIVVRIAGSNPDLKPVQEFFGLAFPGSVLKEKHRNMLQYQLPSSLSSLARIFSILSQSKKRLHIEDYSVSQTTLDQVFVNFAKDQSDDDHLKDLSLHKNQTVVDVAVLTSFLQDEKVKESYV

EC50, > 100 µM:
C=CCCCCC[C@H](NC(=O)[C@H](CCC(N)=O)NC(=O)[C@H](CCCCN)NC(=O)[C@H](CC(C)C)NC(=O)[C@H](C)NC(=O)[C@H](CCC(=O)O)NC(=O)[C@H](CC(C)C)NC(=O)[C@H](CCC(=O)O)NC(=O)[C@H](CCC(=O)O)NC(=O)[C@H](CC(N)=O)NC(=O)[C@H](CC(C)C)NC(=O)[C@H](CCCCN)NC(=O)[C@H](CCC(=O)O)NC(=O)[C@H](CCCNC(=N)N)NC(=O)[C@H](Cc1ccccc1)NC(=O)[C@H](CCC(=O)O)NC(=O)[C@H](CC(=O)O)NC(=O)[C@H](CC(C)C)NC(=O)[C@@H](NC(=O)[C@@H]1CCCN1C(C)=O)C(C)C)C(=O)N[C@@H](CC(C)C)C(=O)N[C@@H](CCCCN)C(N)=O
C=CCCCCC[C@@H](NC(=O)[C@@H]1CCCN1C(C)=O)C(=O)N[C@@H](CC(C)C)C(=O)N[C@@H](CC(=O)O)C(=O)N[C@@H](CCC(=O)O)C(=O)N[C@@H](Cc1ccccc1)C(=O)N[C@@H](CCCNC(=N)N)C(=O)N[C@@H](CCC(=O)O)C(=O)N[C@@H](CCCCN)C(=O)N[C@@H](CC(C)C)C(=O)N[C@@H](CC(N)=O)C(=O)N[C@@H](CCC(=O)O)C(=O)N[C@@H](CCC(=O)O)C(=O)N[C@@H](CC(C)C)C(=O)N[C@@H](CCC(=O)O)C(=O)N[C@@H](C)C(=O)N[C@@H](CC(C)C)C(=O)N[C@@H](CCCCN)C(=O)N[C@@H](CCC(N)=O)C(=O)N[C@@H](CCCCN)C(=O)N[C@@H](CC(C)C)C(=O)N[C@@H](CCCCN)C(N)=O
C=CCCCCC[C@@H](NC(=O)[C@H](CCC(=O)O)NC(=O)[C@H](CC(=O)O)NC(=O)[C@H](CC(C)C)NC(=O)[C@@H](NC(=O)[C@@H]1CCCN1C(C)=O)C(C)C)C(=O)N[C@@H](CCCNC(=N)N)C(=O)N[C@@H](CCC(=O)O)C(=O)N[C@@H](CCCCN)C(=O)N[C@@H](CC(C)C)C(=O)N[C@@H](CC(N)=O)C(=O)N[C@@H](CCC(=O)O)C(=O)N[C@@H](CCC(=O)O)C(=O)N[C@@H](CC(C)C)C(=O)N[C@@H](CCC(=O)O)C(=O)N[C@@H](C)C(=O)N[C@@H](CC(C)C)C(=O)N[C@@H](CCCCN)C(=O)N[C@@H](CCC(N)=O)C(=O)N[C@@H](CCCCN)C(=O)N[C@@H](CC(C)C)C(=O)N[C@@H](CCCCN)C(N)=O
C=CCCCCC[C@@H](NC(=O)[C@H](CCC(=O)O)NC(=O)[C@H](CCCNC(=N)N)NC(=O)[C@H](Cc1ccccc1)NC(=O)[C@H](CCC(=O)O)NC(=O)[C@H](CC(=O)O)NC(=O)[C@H](CC(C)C)NC(=O)[C@@H](NC(=O)[C@@H]1CCCN1C(C)=O)C(C)C)C(=O)N[C@@H](CC(C)C)C(=O)N[C@@H](CC(N)=O)C(=O)N[C@@H](CCC(=O)O)C(=O)N[C@@H](CCC(=O)O)C(=O)N[C@@H](CC(C)C)C(=O)N[C@@H](CCC(=O)O)C(=O)N[C@@H](C)C(=O)N[C@@H](CC(C)C)C(=O)N[C@@H](CCCCN)C(=O)N[C@@H](CCC(N)=O)C(=O)N[C@@H](CCCCN)C(=O)N[C@@H](CC(C)C)C(=O)N[C@@H](CCCCN)C(N)=O
C=CCCCCC[C@H](NC(=O)[C@H](C)NC(=O)[C@H](CCC(=O)O)NC(=O)[C@H](CC(C)C)NC(=O)[C@H](CCC(=O)O)NC(=O)[C@H](CCC(=O)O)NC(=O)[C@H](CC(N)=O)NC(=O)[C@H](CC(C)C)NC(=O)[C@H](CCCCN)NC(=O)[C@H](CCC(=O)O)NC(=O)[C@H](CCCNC(=N)N)NC(=O)[C@H](Cc1ccccc1)NC(=O)[C@H](CCC(=O)O)NC(=O)[C@H](CC(=O)O)NC(=O)[C@H](CC(C)C)NC(=O)[C@@H](NC(=O)[C@@H]1CCCN1C(C)=O)C(C)C)C(=O)N[C@@H](CCCCN)C(=O)N[C@@H](CCC(N)=O)C(=O)N[C@@H](CCCCN)C(=O)N[C@@H](CC(C)C)C(=O)N[C@@H](CCCCN)C(N)=O
C=CCCCCC[C@@H](NC(=O)[C@H](CCCCN)NC(=O)[C@H](CCC(=O)O)NC(=O)[C@H](CCCN=C(N)N)NC(=O)[C@H](Cc1ccccc1)NC(=O)[C@H](CCC(=O)O)NC(=O)[C@H](CC(=O)O)NC(=O)[C@H](CC(C)C)NC(=O)[C@@H](NC(=O)[C@@H]1CCCN1C(C)=O)C(C)C)C(=O)N[C@@H](CC(N)=O)C(=O)N[C@@H](CCC(=O)O)C(=O)N[C@@H](CCC(=O)O)C(=O)N[C@@H](CC(C)C)C(=O)N[C@@H](CCC(=O)O)C(=O)N[C@@H](C)C(=O)N[C@@H](CC(C)C)C(=O)N[C@@H](CCCCN)C(=O)N[C@@H](CCC(N)=O)C(=O)N[C@@H](CCCCN)C(=O)N[C@@H](CC(C)C)C(=O)N[C@@H](CCCCN)C(N)=O
C=CCCCCC[C@@H](NC(=O)[C@H](CCC(=O)O)NC(=O)[C@H](CCC(=O)O)NC(=O)[C@H](CC(N)=O)NC(=O)[C@H](CC(C)C)NC(=O)[C@H](CCCCN)NC(=O)[C@H](CCC(=O)O)NC(=O)[C@H](CCCN=C(N)N)NC(=O)[C@H](Cc1ccccc1)NC(=O)[C@H](CCC(=O)O)NC(=O)[C@H](CC(=O)O)NC(=O)[C@H](CC(C)C)NC(=O)[C@@H](NC(=O)[C@@H]1CCCN1C(C)=O)C(C)C)C(=O)N[C@@H](CCC(=O)O)C(=O)N[C@@H](C)C(=O)N[C@@H](CC(C)C)C(=O)N[C@@H](CCCCN)C(=O)N[C@@H](CCC(N)=O)C(=O)N[C@@H](CCCCN)C(=O)N[C@@H](CC(C)C)C(=O)N[C@@H](CCCCN)C(N)=O
C=CCCCCC[C@@H](NC(=O)[C@H](C)NC(=O)[C@H](CCC(=O)O)NC(=O)[C@H](CC(C)C)NC(=O)[C@H](CCC(=O)O)NC(=O)[C@H](CCC(=O)O)NC(=O)[C@H](CC(N)=O)NC(=O)[C@H](CC(C)C)NC(=O)[C@H](CCCCN)NC(=O)[C@H](CCC(=O)O)NC(=O)[C@H](CCCN=C(N)N)NC(=O)[C@H](Cc1ccccc1)NC(=O)[C@H](CCC(=O)O)NC(=O)[C@H](CC(=O)O)NC(=O)[C@H](CC(C)C)NC(=O)[C@@H](NC(=O)[C@@H]1CCCN1C(C)=O)C(C)C)C(=O)N[C@@H](CCCCN)C(=O)N[C@@H](CCC(N)=O)C(=O)N[C@@H](CCCCN)C(=O)N[C@@H](CC(C)C)C(=O)N[C@@H](CCCCN)C(N)=O
C=CCCCCC[C@@H](NC(=O)[C@H](CCC(N)=O)NC(=O)[C@H](CCCCN)NC(=O)[C@H](CC(C)C)NC(=O)[C@H](C)NC(=O)[C@H](CCC(=O)O)NC(=O)[C@H](CC(C)C)NC(=O)[C@H](CCC(=O)O)NC(=O)[C@H](CCC(=O)O)NC(=O)[C@H](CC(N)=O)NC(=O)[C@H](CC(C)C)NC(=O)[C@H](CCCCN)NC(=O)[C@H](CCC(=O)O)NC(=O)[C@H](CCCN=C(N)N)NC(=O)[C@H](Cc1ccccc1)NC(=O)[C@H](CCC(=O)O)NC(=O)[C@H](CC(=O)O)NC(=O)[C@H](CC(C)C)NC(=O)[C@@H](NC(=O)[C@@H]1CCCN1C(C)=O)C(C)C)C(=O)N[C@@H](CC(C)C)C(=O)N[C@@H](CCCCN)C(N)=O
C=CCCC[C@@H](NC(=O)[C@H](CCC(=O)O)NC(=O)[C@H](CC(N)=O)NC(=O)[C@H](CC(C)C)NC(=O)[C@H](CCCCN)NC(=O)[C@H](CCC(=O)O)NC(=O)[C@H](CCCNC(=N)N)NC(=O)[C@H](Cc1ccccc1)NC(=O)[C@H](CCC(=O)O)NC(=O)[C@H](CC(=O)O)NC(=O)[C@H](CC(C)C)NC(=O)[C@@H](NC(=O)[C@@H]1CCCN1C(C)=O)C(C)C)C(=O)N[C@@H](CC(C)C)C(=O)N[C@@H](CCC(=O)O)C(=O)N[C@@H](C)C(=O)N[C@@H](CC(C)C)C(=O)N[C@@H](CCCCN)C(=O)N[C@@H](CCC(N)=O)C(=O)N[C@@H](CCCCN)C(=O)N[C@@H](CC(C)C)C(=O)N[C@@H](CCCCN)C(N)=O
C=CCCCCC[C@H](NC(=O)[C@H](CCC(=O)O)NC(=O)[C@H](CC(=O)O)NC(=O)[C@H](CC(C)C)NC(=O)[C@@H](NC(=O)[C@@H]1CCCN1C(C)=O)C(C)C)C(=O)N[C@@H](CCCNC(=N)N)C(=O)N[C@@H](CCC(=O)O)C(=O)N[C@@H](CCCCN)C(=O)N[C@@H](CC(C)C)C(=O)N[C@@H](CC(N)=O)C(=O)N[C@@H](CCC(=O)O)C(=O)N[C@@H](CCC(=O)O)C(=O)N[C@@H](CC(C)C)C(=O)N[C@@H](CCC(=O)O)C(=O)N[C@@H](C)C(=O)N[C@@H](CC(C)C)C(=O)N[C@@H](CCCCN)C(=O)N[C@@H](CCC(N)=O)C(=O)N[C@@H](CCCCN)C(=O)N[C@@H](CC(C)C)C(=O)N[C@@H](CCCCN)C(N)=O
C=CCCCCC[C@H](NC(=O)[C@H](CCC(=O)O)NC(=O)[C@H](CCCN=C(N)N)NC(=O)[C@H](Cc1ccccc1)NC(=O)[C@H](CCC(=O)O)NC(=O)[C@H](CC(=O)O)NC(=O)[C@H](CC(C)C)NC(=O)[C@@H](NC(=O)[C@@H]1CCCN1C(C)=O)C(C)C)C(=O)N[C@@H](CC(C)C)C(=O)N[C@@H](CC(N)=O)C(=O)N[C@@H](CCC(=O)O)C(=O)N[C@@H](CCC(=O)O)C(=O)N[C@@H](CC(C)C)C(=O)N[C@@H](CCC(=O)O)C(=O)N[C@@H](C)C(=O)N[C@@H](CC(C)C)C(=O)N[C@@H](CCCCN)C(=O)N[C@@H](CCC(N)=O)C(=O)N[C@@H](CCCCN)C(=O)N[C@@H](CC(C)C)C(=O)N[C@@H](CCCCN)C(N)=O
C=CCCCCC[C@H](NC(=O)[C@H](CCCCN)NC(=O)[C@H](CCC(=O)O)NC(=O)[C@H](CCCNC(=N)N)NC(=O)[C@H](Cc1ccccc1)NC(=O)[C@H](CCC(=O)O)NC(=O)[C@H](CC(=O)O)NC(=O)[C@H](CC(C)C)NC(=O)[C@@H](NC(=O)[C@@H]1CCCN1C(C)=O)C(C)C)C(=O)N[C@@H](CC(N)=O)C(=O)N[C@@H](CCC(=O)O)C(=O)N[C@@H](CCC(=O)O)C(=O)N[C@@H](CC(C)C)C(=O)N[C@@H](CCC(=O)O)C(=O)N[C@@H](C)C(=O)N[C@@H](CC(C)C)C(=O)N[C@@H](CCCCN)C(=O)N[C@@H](CCC(N)=O)C(=O)N[C@@H](CCCCN)C(=O)N[C@@H](CC(C)C)C(=O)N[C@@H](CCCCN)C(N)=O
C=CCCCCC[C@H](NC(=O)[C@H](CCC(=O)O)NC(=O)[C@H](CCC(=O)O)NC(=O)[C@H](CC(N)=O)NC(=O)[C@H](CC(C)C)NC(=O)[C@H](CCCCN)NC(=O)[C@H](CCC(=O)O)NC(=O)[C@H](CCCNC(=N)N)NC(=O)[C@H](Cc1ccccc1)NC(=O)[C@H](CCC(=O)O)NC(=O)[C@H](CC(=O)O)NC(=O)[C@H](CC(C)C)NC(=O)[C@@H](NC(=O)[C@@H]1CCCN1C(C)=O)C(C)C)C(=O)N[C@@H](CCC(=O)O)C(=O)N[C@@H](C)C(=O)N[C@@H](CC(C)C)C(=O)N[C@@H](CCCCN)C(=O)N[C@@H](CCC(N)=O)C(=O)N[C@@H](CCCCN)C(=O)N[C@@H](CC(C)C)C(=O)N[C@@H](CCCCN)C(N)=O

Reference: ChEMBL document CHEMBL1629456, “ApoA-I mimetic peptides promote pre-β HDL formation in vivo causing remodeling of HDL and triglyceride accumulation at higher dose” (Bioorg Med Chem, 2010)
